Legend:
[1] = tested on: monocytes isolated from human peripheral blood; assay: Internalization capacity (endocytosis, pinocytosis, macropinocytosis) of differentiated monocytes; format: cell-based; conditions: control = 100%
Procedure: The “control” and “LPC” cells used in this analysis are those obtained after 6 days of differentiation according to the protocol described in example 1. These cells are incubated at 37° C.: • for 30 minutes with 1 mg/ml of FITC-T70-Dextran (Sigma) in order to estimate the capacity of these cells for internalization by endocytosis, • for 30 minutes with 1 mg/ml of Lucifer Yellow (ref. L0259, Sigma, St Quentin-Fallavier, France) in order to estimate the capacity of these cells for internalization by pinocytosis, • for 3 hours with carboxylate-modified yellow-green FluoSpheres (trade name, 0.45 μm, Molecular Probes, Leiden, The Netherlands) in order to estimate the capacity of these cells for internalization by macropinocytosis.
The internalization is stopped on ice with a cold PBS buffer containing 0.1% of BSA (Bovine Serum Albumin) and 0.05% of NaN3. The “control” and “LPC” cells are washed 3 times at 4° C. in this same buffer and the fluorescence is quantified by FACScalibur (trade name, Becton Dickinson).

BALB/c mice [2] = assay: HEL-specific IgG in serum by ELISA after immunization; format: in vivo, mouse; conditions: LPC 350 nmol co-injected with HEL, booster after 15 days; FIG. 1
Procedure: LPC stimulates the production of specific antibodies against a co-injected soluble antigen. LPC dissolved in PBS (350 nmol in 50 μl) is mixed with hen egg lysozyme (HEL, 1 mg/ml) and this mixture is injected into the plantar foot pad of BALB/c mice. The “HEL+LPC” batch of mice receives 50 μl of this mixture in the foot pads of the two hind feet. The “HEL” batch of mice receives 50 μl of HEL solution (1 mg/ml in PBS) in the two feet. After 15 days, a booster injection is given subcutaneously on the 2 flanks. The “HEL+LPC” batch receives, on each flank, 100 μl of a solution of LPC (5 mM) and of HEL (1 mg/ml) in PBS. The “HEL” batch receives, on each flank, 100 μl of a solution of HEL (1 mg/ml) in PBS. Two weeks later, blood is taken from the mice and the IgGs specific for the HEL antigen are assayed by ELISA with respect to a standard IgG solution range. The titration curves giving the absorbance (Abs) as a function of the logarithm of the serum dilution are represented in FIG. 1.

[3] = tested on: monocytes isolated from human peripheral blood; assay: Phenotype (CD83, HLA-DR, CD86 expression) by flow cytometry of monocytes differentiated in absence or presence of LPC; format: cell-based; conditions: 6th day of differentiation; 40 μM LPC added on day 5 for 24 hours
Procedure: Isolation, placing in culture and initiation of the differentiation of monocytes—The monocytes are isolated from human peripheral blood by means of first density gradient centrifugation (620 g; 20 minutes) in Ficoll-Hypaque, followed by second centrifugation (770 g; 20 minutes) in a 50% Percoll solution. The monocytes are then purified by immunomagnetic depletion (Dynal, Oslo, Norway), using a cocktail of anti-CD19 (hydridoma 4G7) (Becton Dickinson, Francklin Lakes, N.J., USA), anti-CD3 (OKT3, American Type Culture Collection, Rockeville, Md.) and anti-CD56 (NKH1, Beckman Coulter, Fullerton, Calif., USA) monoclonal antibodies. The monocytes thus obtained are then purified to at least 90%, as shown by the absence of CD1a markers and the presence of the CD14 marker. The differentiation of the monocytes into dendritic cells is initiated with 40 ng/ml of recombined human GM-CSF (Granulocyte-Macrophage Colony Stimulating Factor) and 250 U/ml of recombined human interleukin IL-4.
The monocytes are placed in culture in RPMI 1640 medium (Life Technologies, Rockeville, Md., USA) enriched with 2 mM of glutamine (Life Technologies), 10 mM of Hepes (Life Technologies), […] of gentamycin (Life Technologies) and 10% of lipoprotein-depleted fetal calf serum (LPDS, Sigma, St Quentin-Fallavier, France).
Treatment of the monocytes with LPC—5 days after the beginning of the differentiation of the monocytes, 40 μM of LPC (L-α-lysophosphatidylcholine; Sigma, St Quentin Fallavier, France) are added to the culture medium for 24 hours. Control cells are also obtained in the absence of LPC in the culture medium.
The cells used in this analysis are those obtained on the 6th day of differentiation according to the protocol described in example 1.
The phenotype of the “control” and “LPC” cells is analyzed by flow cytometry on a FACSCalibur (Becton Dickinson, Francklin Lakes, N.J., USA) using FITC (fluorosceine isothiocyanate)-conjugated anti-CD14, anti-HLA-DR and anti-CD80 and PE (phycoerythrin)-conjugated anti-CD1a, anti-CD83, anti-CD86 and anti-CD40 (Beckman Coulter). […]

BALB/c mice [4] = assay: Delayed contact hypersensitivity to the hapten DNFB (ear edema); format: in vivo, mouse; conditions: 500 nmol LPC on back 10 minutes before DNFB sensitization, 48 h after elicitation
Text: LPC can induce a CD8+ T lymphocyte response in vivo. In this example, a test for delayed contact hypersensitivity to haptens was used. In this model, BALB/c mice are sensitized by application of a hapten, DNFB (1-fluoro-2,4-dinitrobenzene, 0.5% solution in 1:1 olive oil/acetone), to the back. Five days later, a non-irritant dose of DNFB (0.2% solution in 1:1 olive oil/acetone) is applied to the left ear, whereas the right ear receives the solvent. In this elicitation phase, CD8^+ T lymphocytes specific for the haptenized proteins are recruited and infiltrate the ear, secreting γIFN and producing an edema.
A “control” batch of mice was sensitized with DNFB alone and another batch (“LPC” mice) received 500 nmol of LPC by application to the skin of the back of 20 μl of an ethanolic solution of LPC, 10 minutes before the application of DNFB. Five days later, the two batches were treated in the same way for the elicitation phase and the thickening of the ears was measured using a micrometer 48 h after this application.

Substance: L-α-lysophosphatidylcholine [LPC]
- Capacity for internalization by endocytosis ([1]; FITC-T70-Dextran 30 minutes): 53%
- Capacity for internalization by macropinocytosis ([1]; FluoSpheres 3 hours): 66%
- Capacity for internalization by pinocytosis ([1]; Lucifer Yellow 30 minutes): 49%
- Production of IgGs specific for the HEL antigen (BALB/c mice [2]): induces the synthesis of antibodies specific for the antigen
- Expression of CD83 [3]: 11.74
- Expression of CD86 [3]: 759.69
- Expression of HLA-DR [3]: 146.31
- Thickening of the left ear (BALB/c mice [4]; left ear receives DNFB 0.2%): 149 ± 31 μm
- Thickening of the right ear (BALB/c mice [4]; right ear receives solvent): 0 ± 3 μm
